{"source": "patent US20130331445A1", "about": "(Axelar AB, priority 2010, published 2013)", "key": {"[1]": {"assay": "Solubility in 1% sodium dodecyl sulfate (SDS) by LC-UV", "assay_type": "physicochemical", "conditions": "aqueous with cosolvent or surfactant or cyclodextrin, thermodynamic from solid, 1% SDS, 24 hours rotation", "procedure": "The solubility was determined in different media by use of LC-UV chromatography. An excess amount of substance was weighed in vials and 0.5 ml of the medium was added. The substance was rotated in the specific medium at ambient temperature for 24 hours, followed by filtering the supernatant using a hydrophilic PVDF (Millipore Corp.) 0.22 μm filter. The samples were then diluted with a 1:1 mixture of mobile phase A and B (see below) and analyzed using an Xterra™ MS C18, 50×2.1 mm column with UV detection at 288 nm. The mobile phase consisted of acetonitrile, water and trifluoroacetic acid, 5:95:0.1(A) and 99:1:0.1(B)."}, "[2]": {"test_system": "progressive non-small cell lung cancer (NSCLC)", "assay": "Phase I/II clinical trial in patients with progressive non-small cell lung cancer", "assay_type": "in vivo", "procedure": "The patients were assessed with imaging at the start of the study and thereafter every two months."}}}
{"smiles": "COc1cc(C2c3cc4c(cc3C(O)[C@H]3COC(=O)[C@@H]23)OCO4)cc(OC)c1OC", "note": "(stereo partly drawn) [picropodophyllin monohydrate]", "values": [{"measurement": "solubility at 24 h", "setting": "[1]; ambient temperature", "value": 210, "unit": "µg/mL"}, {"measurement": "solubility at 24 h", "setting": "[1]; corresponds to the mg/ml value", "value": 489, "unit": "µM"}, {"measurement": "patients with partial response according to RECIST criteria", "setting": "[2]; NSCLC patients, 390 or 520 mg twice-daily", "value": "one"}, {"measurement": "patients still alive at cut-off", "setting": "[2]; of ten NSCLC patients, 390 or 520 mg twice-daily", "value": "five"}, {"measurement": "patients with no detectable progression at cut-off", "setting": "[2]; of the five NSCLC patients still alive, 390 or 520 mg twice-daily", "value": "two"}, {"measurement": "median survival time", "setting": "[2]; ten NSCLC patients, 390 or 520 mg twice-daily monotherapy, at least two weeks, expected median survival less than 20 weeks", "value": 42, "unit": "weeks"}]}
